In patent US8309766B2 (Obschestvo S. Organichennoi Otvetstvennostiyu …, priority 2005, dated 2012):

Legend:
gastric mucosa of rats = test: Ulcerogenic effect on gastric mucosa; type: in vivo, outbreed rats; conditions: 30 mg/kg once intragastrally, at 24 hours, M ± m
Experimental: The tests were carried out on females of outbreed rats weighing 300-320 grams. The compounds tested were administered once intragastrally at a dose 30 mg/kg to rats deprived of feed for 24 hours prior to the test. Animals in the control group were administered distilled water in the same volume. At 24 hours the animals were sacrificed and stomachs were extracted. An empty stomach was filled with 2% formalin solution and it was placed into a beaker with formalin. 30 minutes later, the stomach was opened along the great curvature, expanded on a slide, fixed and washed with distilled water. Using the magnifying glass MBS-9 (8-fold magnification) length and width of gastric mucosa defects was measured and area in mm^2 was calculated (1 division of the magnifying glass ruler=0.1 mm). Ulcerogenic effect of a substance was assessed by ulcerous lesion area of gastric mucosa according to the technique presented in Rukovodstvo po experimental'nomu (doklinicheskomu) izucheniju novykh pharmacologicheskikh veshchestv (the Guide on Experimental (pre-clinical) Study of Novel Pharmacological Substances)./Moscow. “Remedium” publishers. 2000, 398 pages.

[1] = system: "acetic contortions" in mice; test: Effect on analgetic action of Tramal and Analgin on the model "acetic contortions"; type: in vivo, white mongrel mice
Experimental: The tests were conducted on males of white mongrel mice weighing 22-24 grams. The specific pain response (“contortions”) were elicited by intraperitoneal administration to mice of 0.75% acetic acid solution. The following signs were taken into consideration: the number of seizure contractions of abdominal muscles accompanied by stretching the hind limbs and sagging the back. Analgetic effect was assessed by decrease in the number of contortions in animals in percent to the control for 15 minutes post administration of acetic acid. The technique of the tests is disclosed in Koster R., Anderson M., de Beer B.//Fed. Proc. 1959. V. 18. P. 412. Compounds under testing were administered intraperitoneally (using a probe) at a dose 10 μg/kg 60 minutes prior to injection of the acid. Diclofenac (10 mg/kg) was used as a reference drug. Analgetic effect was calculated according to the formula: […]
The studies were carried out in accordance with the technique presented in Example 18.

rat uterine horn's SMP = test: Serotonin-induced contracture of rat uterine horn smooth muscle preparation; set-up: species or system Wistar rats; conditions: for Inhibition of contractions of the rat uterine horn's SMP, % / Rate of contractions of the rat uterine horn's SMP during 5 minutes: serotonin 10^−5 M; for Rate of contractions of the rat uterine horn's SMP during 5 minutes: control 9
Experimental: The model of serotonin-induced soft muscular contracture of an uterine horn [Blattner H. G., Dehnert H. et al. Experiments on isolated smooth muscle preparation. Ed. J. M. Barnden and R. Colson, 1980] was created on females of Wistar rats weighing 300-350 grams. A prepared smooth muscle preparation (SMP) was placed into a thermo-regulated chamber (+37° C.) containing Tirode solution with lowered calcium content in order to prevent spontaneous contractive activity of the smooth muscle preparation. Contraction of the uterine horn was recorded using the mechanotron 6M×2B connected to the polygraph KPS-4; initial load to the object was 0.5-0.7 grams.
Contracture of the SMP was induced by introduction into incubation medium of 0.1 ml serotonin (Sigma) at concentration 10^−5 M. 30-60 seconds post administration of the mediator, a peak contraction amplitude of the uterine horn was recorded. Compound IX was introduced into the chamber at the peak amplitude of contractions or under conditions of incubation (within the same range of concentrations) for 15 minutes.
The effect of compound IX being tested was assessed by a number of contractions and by lowering the amplitude value.

[2] = system: mice in the model of hypoxic hypoxia with hypercapnia; test: Hypoxic hypoxia with hypercapnia in a hermetic volume; type: in vivo; conditions: for Duration of hypoxia (life span), M ± m: control 25.6 ± 0.6
Description: In order to imitate acute oxygen insufficiency the hypoxia model with hypercapnia in a hermetic volume was used (Luk'yanova L. D., Gatsura V. V., Pastushenkov L. V. Metodicheskiye recomendatsii po experimental'nomu izucheniju preparatov, predlagajemykh dlya klinicheskogo isuchenija v kachestve antihypoxicheskikh sredsyv (Methodological recommendations on experimental study of preparations proposed for clinical examination as anti-hypoxic agents). Moscow. 1960. P. 1-19]. […] weighing 27-29 grams were individually placed into 260 ml glass jars which were hermetically closed. As the animals consume oxygen, its concentration in the vessel lowers that results in death of the animals. Life span of the mice in minutes was recorded.

[3] = IX 10 mg/kg alone (Analgin study)
[4] = added at the peak serotonin-induced contracture

O=C(CCc1ccc(O)cc1)NCCc1ccccc1 [Compound IX, 3-(p-hydroxyphenyl)-propionylphenylethylamine]
Area of ulcerous lesion (gastric mucosa of rats): 0 mm^2 | Analgetic effect, % [1, 3]: 43.3% | Number of contortions for 15 minutes, M ± m [1, 3]: 18.8 ± 3.1 | Analgetic effect, % ([1]; IX 10 mg/kg, Tramal 10 mg/kg, alone or combined): 33.6% | Inhibition of contractions of the rat uterine horn's SMP, % (rat uterine horn's SMP; [4]): 44.4% | Rate of contractions of the rat uterine horn's SMP during 5 minutes (rat uterine horn's SMP; [4]): 5 | SMP contracture after the slowed contractions (rat uterine horn's SMP; pre-incubation conditions): complete blockade | Inhibition of contractions of the rat uterine horn's SMP, % (rat uterine horn's SMP; pre-incubation for 15 minutes): 55.6% | Rate of contractions of the rat uterine horn's SMP during 5 minutes (rat uterine horn's SMP; pre-incubation for 15 minutes): 4 | % change from the control ([2]; 10 mg/kg): 0% | Duration of hypoxia (life span), M ± m ([2]; 10 mg/kg): 25.3 ± 0.8 min | Duration of hypoxia (life span), M ± m ([2]; 50 mg/kg): 32.6 ± 2.6 min
